Source: patent publication US20060166237A1, “Method of detecting reaction of DNA and DNA-binding protein” (OLYMPUS CORPORATION, priority 2003, published 2006)

Experiments:
Format in all cases: cell-based
[1] = tested on: transcription factor NF-κB in HeLa cell; assay: Activation of NF-κB in HeLa cell nucleus by TNF-α and APDC stimulation, FCS readout (Experiment 7-2)
Description: (§1) Two hours after addition of APDC, a tumor necrosis factor TNF-α is added to stimulate HeLa cell for 30 minutes, from which a nucleus extract is prepared. A nucleus extract having a concentration of 5, 10 or 20 μg is prepared. Stimulation on a cell is performed in the following two cases.
(§2) (I) The case where stimulation with only a tumor necrosis factor TNF-α is performed for 30 minutes. A concentration of a tumor necrosis factor TNF-α is 0, 10, 25 or 50 ng/ml.
(§3) (II) The case where stimulation with a tumor necrosis factor TNF-α is performed for 30 minutes, two hours after addition of APDC. A concentration of APDC is 10, 100 or 200 μM relative to a 50 ng/ml of a tumor necrosis factor TNF-α.
[Experiment 7-2] Experiment of a reaction of a (fluorescently labeled) DNA having an […] sequence and a cell nucleus extract. The Experiment was performed using a cell nucleus extract which is extracted under the condition of a different concentration of an added tumor necrosis factor TNF-α and a different concentration of added APDC.
The following shown in Table 29 are used to perform a binding reaction experiment in the same way as Experiment 3-2.

[2] = tested on: transcription factor AP-1 in HeLa cell; assay: Activation of AP-1 in HeLa cell nucleus by TNF-α and APDC stimulation, FCS readout (Experiment 7-1)
Description: as §1, §2, §3
[Experiment 7-1] Experiment of a reaction of a (fluorescently labeled) DNA having an AP-1-binding sequence and a cell nucleus extract. The Experiment was performed using a cell nucleus extract which is extracted under the condition of a different concentration of an added tumor necrosis factor TNF-α and a different concentration of an added APDC.
The following shown in Table 28 are used to perform a binding reaction experiment in the same way as Experiment 3-1.

[3] = tested on: transcription factor NF-κB in HeLa cell; assay: Activation of NF-κB in HeLa cell nucleus by TNF-α stimulation time, FCS readout (Experiment 6-2); details: 50 ng/ml TNF-α, nucleus extract 20 μg, DNA 30, FIG. 19
Description: [Experiment 6-2] Experiment of a reaction of a (fluorescently labeled) DNA having an NF-κB-binding sequence and a cell nucleus extract. The Experiment was performed using a cell nucleus extract which is extracted under the condition of a different time length of stimulation with a tumor necrosis factor TNF-α.
In the same way as Experiment 6-1, 50 ng/ml of a tumor necrosis factor TNF-α was added to HeLa cell, and the HeLa cell was stimulated for 0, 15, 30, 60, 120 or 180 minutes. Then, a nucleus extract was prepared from each HeLa cell.
The following shown in Table 27 are used to perform a binding reaction experiment in the same way as Experiment 3-2.

[4] = tested on: transcription factor AP-1 in HeLa cell; assay: Activation of AP-1 in HeLa cell nucleus by TNF-α stimulation time, FCS readout (Experiment 6-1); details: 50 ng/ml TNF-α, nucleus extract 20 μg, DNA 20, FIG. 18
Description: [Experiment 6-1] Experiment of a reaction of a (fluorescently labeled) DNA having an AP-1-binding sequence and a cell nucleus extract. The Experiment was performed using a cell nucleus extract which is extracted under the condition of a different time length of stimulation with a tumor necrosis factor TNF-α.
50 ng/ml of a tumor necrosis factor TNF-α was added to HeLa cell, and the HeLa cell was stimulated for 0, 15, 30, 60, 120 or 180 minutes. Then, a nucleus extract was prepared from each HeLa cell (for preparation method, see Example 3). A concentration of a nucleus extract was set to be 20 μg.
The following shown in Table 26 are used to perform a binding reaction experiment in the same way as Experiment 3-1.

[5] = HeLa cell, APDC 10, 100 or 200 μM with 50 ng/ml TNF-α

Compound	effect of APDC on activation of transcription factor NF-κB by TNF-α [1, 5]	activation of transcription factor AP-1 in cell nucleus extract ([2]; APDC 100 μM and 200 μM, added 2 hours before 50 ng/ml TNF-α for 30 minutes, FIG. 20)	effect of APDC on activation of transcription factor AP-1 by TNF-α [2, 5]	stimulation time giving greatest translational diffusion time (NF-κB sufficiently activated) [3] [min]	activation of transcription factor NF-κB in cell nucleus extract ([1]; stimulation with only TNF-α 50 ng/ml for 30 minutes, FIG. 21)	stimulation time giving greatest translational diffusion time (AP-1 sufficiently activated) [4] [min]
N.S=C(S)N1CCCC1 [APDC, Ammonium pyrrolidinedithiocarbamate]	suppresses activation of a transcription factor NF-κB by a tumor necrosis factor TNF-α	most activated	promotes activation of a transcription factor AP-1 by a tumor necrosis factor TNF-α	–	–	–
tumor necrosis factor TNF-α	–	–	–	15	most activated	30
